Data reported in ChEMBL document CHEMBL1128142, “2-aryl-indolyl maleimides - novel and potent inhibitors of protein kinase C” (Bioorg Med Chem Lett, 1995).

How the values were obtained:
MCF7 = assay: Inhibition of adriamycin-resistant breast tumor line MCF-7/ADR-RE proliferation; format: functional; details: Homo sapiens
[1] = molecular target: Protein kinase C beta type (Homo sapiens, UniProt P05771); assay: Inhibition of protein kinase C beta
[2] = molecular target: T1, Protein kinase C epsilon type (Homo sapiens, UniProt Q02156); assay: Inhibition of Protein kinase C epsilon
T1 sequence (Q02156 whole entry): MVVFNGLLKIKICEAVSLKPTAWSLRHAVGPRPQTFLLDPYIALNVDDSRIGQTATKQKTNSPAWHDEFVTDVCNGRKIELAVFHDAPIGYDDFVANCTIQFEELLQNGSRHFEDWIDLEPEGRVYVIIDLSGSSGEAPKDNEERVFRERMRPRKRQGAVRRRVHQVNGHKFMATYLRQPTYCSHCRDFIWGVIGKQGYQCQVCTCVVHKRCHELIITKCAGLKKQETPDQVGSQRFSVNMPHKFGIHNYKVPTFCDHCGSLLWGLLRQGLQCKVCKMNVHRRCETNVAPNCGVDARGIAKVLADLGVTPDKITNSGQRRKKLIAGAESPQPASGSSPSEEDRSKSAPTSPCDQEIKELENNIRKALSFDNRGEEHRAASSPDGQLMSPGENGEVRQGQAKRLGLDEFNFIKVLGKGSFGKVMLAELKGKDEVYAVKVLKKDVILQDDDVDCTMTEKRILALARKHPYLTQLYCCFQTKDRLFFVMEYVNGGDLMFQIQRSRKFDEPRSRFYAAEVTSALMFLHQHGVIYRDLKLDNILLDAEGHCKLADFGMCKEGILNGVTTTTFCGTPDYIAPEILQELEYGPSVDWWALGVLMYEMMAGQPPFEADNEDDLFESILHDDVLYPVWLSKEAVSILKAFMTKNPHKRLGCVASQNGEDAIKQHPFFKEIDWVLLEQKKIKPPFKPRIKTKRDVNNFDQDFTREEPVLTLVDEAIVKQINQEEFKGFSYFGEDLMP

MDA-N = assay: Inhibition of breast tumor lines(MDA-N) proliferation; format: functional; details: Homo sapiens

Sequence of Protein kinase C beta type (P05771 whole entry): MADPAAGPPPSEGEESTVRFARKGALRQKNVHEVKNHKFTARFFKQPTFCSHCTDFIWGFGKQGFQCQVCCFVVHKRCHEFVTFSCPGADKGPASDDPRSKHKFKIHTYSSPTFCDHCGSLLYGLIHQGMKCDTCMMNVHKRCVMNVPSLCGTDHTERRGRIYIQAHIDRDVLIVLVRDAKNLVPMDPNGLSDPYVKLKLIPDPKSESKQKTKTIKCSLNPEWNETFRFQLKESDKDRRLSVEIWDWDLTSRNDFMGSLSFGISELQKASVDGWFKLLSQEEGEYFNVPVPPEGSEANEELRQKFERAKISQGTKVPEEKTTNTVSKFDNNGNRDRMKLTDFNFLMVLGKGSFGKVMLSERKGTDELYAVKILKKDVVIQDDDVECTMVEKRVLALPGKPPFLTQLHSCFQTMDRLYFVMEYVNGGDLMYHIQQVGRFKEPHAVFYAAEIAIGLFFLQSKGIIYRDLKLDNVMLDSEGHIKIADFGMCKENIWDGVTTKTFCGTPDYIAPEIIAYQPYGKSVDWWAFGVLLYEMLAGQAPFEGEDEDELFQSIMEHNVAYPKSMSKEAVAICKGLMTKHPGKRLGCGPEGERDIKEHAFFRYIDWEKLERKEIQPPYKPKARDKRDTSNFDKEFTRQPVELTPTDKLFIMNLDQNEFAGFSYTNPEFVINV

N=C(N)SCCCn1cc(C2=CC(=O)NC2=O)c2ccccc21
GI50 (MCF7): 20 nM

N=C(N)SCCCn1c(-c2cc3ccccc3s2)c(C2=CC(=O)NC2=O)c2ccccc21
GI50 (MCF7): 20 nM
IC50 [1]: 3 nM
IC50 [2]: 10 nM
GI50 (MDA-N): < 10 nM

CN(C)CCCn1c(-c2cc3ccccc3s2)c(C2=CC(=O)NC2=O)c2ccccc21
GI50 (MCF7): 100 nM
